# Patent US5859016A, “Memory enhancing and anti-dementia agent containing dehydroevodiamine HC1 as active ingredient” (priority 1995, dated 1999)
# Where a name gives a salt, the structure may show the parent alone.
# Legend:
# rats = assay: Single toxicity study, lethality by a single oral administration; type: in vivo; conditions: single oral, 14 days
# Description: (§1) A single toxicity study of the anti-dementia agent according to this invention was measured using rats. […] The lethality results by a single oral administration of DHED are as follows: […]
# [1] = as above; type: in vivo, rats; conditions: rat, in vivo; after a single administration (oral)
# Description: as §1
# [2] = system: scopolamine induced amnesia; assay: Passive avoidance test, scopolamine induced amnesia; type: in vivo; conditions: rats
# Description: Male Sprague-Dawley rates weighing 200~250 g (12~16 weeks) which had been maintained on a 12 h/12 h light-dark cycle were used for a passive avoidance test. Food and water were available ad libitum. An automated system with a shuttle box (Model PACS-30, Columbus Instruments International Company) was used to evaluate the effects of the extracts on learning and memory essentially as described (11). The shuttle box was divided into two chambers of equal size (19"L×9"W×10.875"H). These compartments were separated by a guillotine door (3" L×2.625" W). A light chamber is equipped with an illuminator. Rats can go to the dark chamber through a guillotine door. […]
# At 24 hours after the training trial, scopolamine (1 mg/kg) or the same volume of saline was intraperitoneally injected to the rats. […] At 24 hours after the acquisition trial, the rat was again placed in the light compartment and latency to enter the dark compartment was measured for 180 sec (retention trial).
# To investigate the effects of repeated administration of DHED, a repeated administration of DHED was intraperitoneally given to the rats at a dose of 6.25 mg/kg. Except for the fact that DHED (6.25 mg/kg) was given to the rats once a day for 5 days before the treatment with scopolamine, the latency time was measured in the same manner as in the single administration.
# AChE = biological target: T1, AChE (Mus musculus, UniProt P21836); assay: Determination of AChE inhibitory activity (Ellman reagent, acetylthiocholine iodide); type: biochemical, mice
# T1 construct: The resulting supernatant was used as an AChE source; from tissue; host or cells: mouse cerebral cortex (detergent-extracted supernatant)
# T1 sequence (P21836 32-614): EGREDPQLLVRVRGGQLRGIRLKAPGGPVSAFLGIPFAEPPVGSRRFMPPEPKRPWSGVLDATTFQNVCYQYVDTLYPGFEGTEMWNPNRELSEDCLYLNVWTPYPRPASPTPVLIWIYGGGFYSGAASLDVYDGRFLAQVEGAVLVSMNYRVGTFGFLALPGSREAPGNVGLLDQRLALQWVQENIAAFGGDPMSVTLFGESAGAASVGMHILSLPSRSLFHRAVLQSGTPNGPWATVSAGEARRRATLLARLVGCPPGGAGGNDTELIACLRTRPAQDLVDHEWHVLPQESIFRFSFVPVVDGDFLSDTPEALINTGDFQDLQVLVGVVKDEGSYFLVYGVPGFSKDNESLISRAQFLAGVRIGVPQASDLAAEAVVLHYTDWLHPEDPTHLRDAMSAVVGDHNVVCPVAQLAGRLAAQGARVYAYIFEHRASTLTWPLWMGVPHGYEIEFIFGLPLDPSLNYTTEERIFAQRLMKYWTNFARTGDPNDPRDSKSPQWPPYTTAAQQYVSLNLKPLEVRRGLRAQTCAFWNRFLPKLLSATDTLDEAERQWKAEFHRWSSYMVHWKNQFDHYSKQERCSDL
# Description: In order to determine AChE inhibitory activity on each of the 20 subfractions obtained from EXAMPLE 1, 10 volumes of phosphate buffer solution (12.5 mM phosphate buffer solution at pH 7.0, including 400 mM NaCl) was added to the cerebral cortex of mice, homogenized in a Potter-Elvehjem homogenizer and centrifuged at 1,000 g for 10 min to obtain the supernatant. After adding homogenized buffer containing 0.5% triton X-100 to the supernatant, the mixtures were stirred for 30 min and centrifuged again at 10,000 for 10 min. The resulting supernatant was used as an AChE source. All extract steps were carried out at 4° C.
# The freeze-dried 20 subfraction extracts of EXAMPLE 1 were initially dissolved in small amounts of distilled water and DMSO. The solution was diluted at a concentration of 200 μg/ml in phosphate buffer (100 mM sodium phosphate, pH 8.0; hereinafter called "buffer solution I"). 1.5 ml of each extract was mixed with 1.5 ml of buffer solution I, 20 μl of 75 mM acetylthiocholine iodide solution and 100 μl of buffered Ellmans reagent [10 mM DTNB (5,5-dithiobis-(2-nitrobenzoic acid)) and 17.85 mM NaHCO3 ] and incubated at 25° C. for 10 min. Absorbance was read at 410 nm immediately after adding an enzyme to the above reaction mixtures. Reading was repeated for 5 min at 30 sec intervals in order to determine AChE inhibitory activity on each subfraction. A blank control reaction was measured by substituting saline for the enzyme.
# AChE activity was calculated with the absorption coefficient […]. The inhibition efficacy was expressed as a percentage of enzyme activity inhibited compared with the control value (100%).
# All experiments were repeated five times, and the results were analyzed by a Wilcoxon-rank sum test and Median 2-sample test.
compound,measurement,setting,value
"C[n+]1c2n(c(=O)c3ccccc31)CCc1c-2[nH]c2ccccc12 [DHED, dehydroevodiamine-HCl]",Mortality,"rats; female, 1,000 mg/kg",1/5
same,Mortality,"rats; female, 1,500 mg/kg",2/5
same,Mortality,"rats; female, 2,000 mg/kg",0/5
same,Mortality,"rats; female, 3,000 mg/kg",5/5
same,Mortality,"rats; female, 4,000 mg/kg",5/5
same,Mortality,"rats; male, 1,000 mg/kg",0/5
same,Mortality,"rats; male, 1,500 mg/kg",0/5
same,Mortality,"rats; male, 2,000 mg/kg",5/5
same,Mortality,"rats; male, 3,000 mg/kg",4/5
same,Mortality,"rats; male, 4,000 mg/kg",5/5
same,LD50,[1],2000 mg/kg
same,"memory enhancement (latency in retention trial), repeated administration","[2]; 6.25 mg/kg intraperitoneally once a day for 5 days before scopolamine 1 mg/kg, FIG. 6",may improve memory enhancement
same,"memory enhancement (latency in retention trial), single administration","[2]; 6.25 mg/kg intraperitoneally, single, scopolamine 1 mg/kg, FIG. 5",significant memory enhancement
same,IC50,"AChE; AChE source from cerebral cortex of mice, FIG. 3, read-out: concentration required for 50% enzyme inhibition (IC50) of AChE",37.8 µM
same,"inhibitory effect on AChE, dose dependence",AChE; FIG. 3,strong inhibitory effect on AChE in a dose-dependent manner
same,manner of AChE inhibition (Lineweaver-Burke plots),"AChE; substrate 23 to 230 μM, DHED 40 μM, FIG. 4",non-competitive
